Laboratory results: ChEMBL document CHEMBL5316367, “Mass Spectrometry-Guided Discovery of Multi-N-Methylated Cyclodecapeptides Auyuittuqamides E-H from Sesquicillium sp. QL0466” (2023)
In brackets after ≈: the same amount, converted by molar mass.

What was measured:
Assay type in all cases: functional
Enterococcus faecium [1] = assay: Antimicrobial activity against vancomycin-resistant Enterococcus faecium 151458137 assessed as inhibition of bacterial growth by microtiter plate reader assay
Staphylococcus aureus [2] = assay: Antimicrobial activity against Staphylococcus aureus ATCC 6538 assessed as inhibition of bacterial growth by microtiter plate reader assay
Escherichia coli = assay: Antimicrobial activity against Escherichia coli ATCC 25922 assessed as inhibition of bacterial growth by microtiter plate reader assay
Enterococcus faecium [3] = assay: Antimicrobial activity against vancomycin-sensitive Enterococcus faecium 160119481 assessed as inhibition of bacterial growth by microtiter plate reader assay
Staphylococcus aureus [4] = assay: Antimicrobial activity against methicillin-resistant Staphylococcus aureus 11646 assessed as inhibition of bacterial growth by microtiter plate reader assay

| Compound | MIC (Enterococcus faecium [1]) [µg/mL] | MIC (Staphylococcus aureus [2]) [µg/mL] | MIC (Escherichia coli) [µg/mL] | MIC (Enterococcus faecium [3]) [µg/mL] | MIC (Staphylococcus aureus [4]) [µg/mL] |
| --- | --- | --- | --- | --- | --- |
| CC[C@H](C)[C@@H]1NC(=O)CNC(=O)[C@H](CC(C)C)N(C)C(=O)[C@H]([C@@H](C)CC)NC(=O)[C@H]([C@@H](C)O)N(C)C(=O)[C@H](Cc2ccccc2)NC(=O)CNC(=O)[C@@H](CC(C)C)N(C)C(=O)[C@H]([C@@H](C)CC)NC(=O)[C@H](CO)NC1=O | 8 (≈ 7.57 µM) | 8 (≈ 7.57 µM) | > 128 | 8 (≈ 7.57 µM) | > 128 |
| CC[C@H](C)[C@@H]1NC(=O)[C@H]([C@@H](C)O)N(C)C(=O)[C@H](Cc2ccccc2)NC(=O)CNC(=O)[C@@H](CC(C)C)N(C)C(=O)[C@H](CC(C)C)NC(=O)[C@H](CO)NC(=O)[C@H](CC(C)C)NC(=O)CNC(=O)[C@H](CC(C)C)N(C)C1=O | 8 (≈ 7.57 µM) | 8 (≈ 7.57 µM) | > 128 | 8 (≈ 7.57 µM) | > 128 |
| CC[C@H](C)[C@@H]1NC(=O)[C@H](CO)NC(=O)[C@H](CC(C)C)NC(=O)CNC(=O)[C@H](CC(C)C)N(C)C(=O)[C@H]([C@@H](C)CC)NC(=O)[C@H]([C@@H](C)O)N(C)C(=O)[C@H](Cc2ccccc2)NC(=O)CNC(=O)[C@@H](CC(C)C)N(C)C1=O | 8 (≈ 7.57 µM) | 8 (≈ 7.57 µM) | > 128 | 8 (≈ 7.57 µM) | > 128 |
| CC[C@H](C)[C@@H]1NC(=O)CNC(=O)[C@H](CC(C)C)N(C)C(=O)[C@H]([C@@H](C)CC)NC(=O)[C@H]([C@@H](C)O)N(C)C(=O)[C@H](Cc2ccccc2)NC(=O)CNC(=O)[C@@H](CC(C)C)N(C)C(=O)[C@H](CC(C)C)NC(=O)[C@H](CO)NC1=O | 8 (≈ 7.57 µM) | 8 (≈ 7.57 µM) | > 128 | 8 (≈ 7.57 µM) | > 128 |
| NC[C@H]1O[C@H](O[C@H]2[C@H](O)[C@@H](O[C@H]3O[C@H](CO)[C@@H](O)[C@H](N)[C@H]3O)[C@H](N)C[C@@H]2N)[C@H](N)[C@@H](O)[C@@H]1O [BEKANAMYCIN] | – | – | 32 (≈ 66.2 µM) | – | – |
